ChEMBL document CHEMBL3044545, “Synthesis and evaluation of antioxidant and antimicrobial properties of thymol containing pyridone moieties” (2012)

Experiments:
Format in all cases: functional
[1] = Antioxidant activity assessed as inhibition of NBT reduction at 100 ug/ml
Talaromyces marneffei [2] = experiment: Antimicrobial activity against Talaromyces marneffei at 100 ppm after 48 hr by agar well diffusion method; details: read-out: IZ
[3] = Antioxidant activity assessed as inhibition of NBT reduction at 80 ug/ml
Staphylococcus aureus [4] = experiment: Antimicrobial activity against Staphylococcus aureus at 100 ppm after 48 hr by agar well diffusion method; details: read-out: IZ
Escherichia coli [5] = experiment: Antimicrobial activity against Escherichia coli at 100 ppm after 48 hr by agar well diffusion method; details: read-out: IZ
[6] = Antioxidant activity assessed as inhibition of NBT reduction at 20 ug/ml
Aspergillus niger [7] = experiment: Antimicrobial activity against Aspergillus niger at 100 ppm after 48 hr by agar well diffusion method; details: read-out: IZ
[8] = Antioxidant activity assessed as inhibition of NBT reduction at 60 ug/ml
[9] = Antioxidant activity assessed as inhibition of NBT reduction at 40 ug/ml
Escherichia coli [10] = experiment: Antimicrobial activity against Escherichia coli at 100 ug/ml after 48 hr by agar well diffusion method; details: read-out: IZ
Staphylococcus aureus [11] = experiment: Antimicrobial activity against Staphylococcus aureus at 100 ug/ml after 48 hr by agar well diffusion method; details: read-out: IZ
Aspergillus niger [12] = experiment: Antimicrobial activity against Aspergillus niger at 100 ug/ml after 48 hr by agar well diffusion method; details: read-out: IZ
Talaromyces marneffei [13] = experiment: Antimicrobial activity against Talaromyces marneffei at 100 ug/ml after 48 hr by agar well diffusion method; details: read-out: IZ

## Cc1cc(O)c(C(C)C)cc1-c1cc(-c2ccccc2[N+](=O)[O-])c(C#N)c(=O)[nH]1
[1]
  inhibition: 37.5%
Talaromyces marneffei [2]
  zone of inhibition at 100 ppm: 11 mm
[3]
  inhibition: 35%
Staphylococcus aureus [4]
  zone of inhibition at 100 ppm: 13 mm
Escherichia coli [5]
  zone of inhibition at 100 ppm: 14 mm
[6]
  inhibition: 20%
Aspergillus niger [7]
  zone of inhibition at 100 ppm: 12 mm
[8]
  inhibition: 31%
[9]
  inhibition: 25.5%

## Cc1onc(-c2ccccc2Cl)c1C(=O)N[C@@H]1C(=O)N2[C@@H]1SC(C)(C)[C@@H]2C(=O)O [CLOXACILLIN]
Escherichia coli [10]
  zone of inhibition at 100 µg/mL: 17 mm
Staphylococcus aureus [11]
  zone of inhibition at 100 µg/mL: 18 mm

## COc1cccc(-c2cc(-c3cc(C(C)C)c(O)cc3C)[nH]c(=O)c2C#N)c1
[1]
  inhibition: 49%
Talaromyces marneffei [2]
  zone of inhibition at 100 ppm: 11 mm
[3]
  inhibition: 43%
Staphylococcus aureus [4]
  zone of inhibition at 100 ppm: 13 mm
Escherichia coli [5]
  zone of inhibition at 100 ppm: 14 mm
[6]
  inhibition: 22%
Aspergillus niger [7]
  zone of inhibition at 100 ppm: 11 mm
[8]
  inhibition: 38%
[9]
  inhibition: 30%

## COc1ccc(-c2cc(-c3cc(C(C)C)c(O)cc3C)[nH]c(=O)c2C#N)cc1OC
[1]
  inhibition: 61%
Talaromyces marneffei [2]
  zone of inhibition at 100 ppm: 10 mm
[3]
  inhibition: 58%
Staphylococcus aureus [4]
  zone of inhibition at 100 ppm: 13 mm
Escherichia coli [5]
  zone of inhibition at 100 ppm: 13 mm
[6]
  inhibition: 25%
Aspergillus niger [7]
  zone of inhibition at 100 ppm: 9 mm
[8]
  inhibition: 52%
[9]
  inhibition: 44%

## OC(Cn1cncn1)(Cn1cncn1)c1ccc(F)cc1F [FLUCONAZOLE]
Aspergillus niger [12]
  zone of inhibition at 100 µg/mL: 16 mm
Talaromyces marneffei [13]
  zone of inhibition at 100 µg/mL: 17 mm

## COc1ccc(-c2cc(-c3cc(C(C)C)c(O)cc3C)[nH]c(=O)c2C#N)cc1
[1]
  inhibition: 54%
Talaromyces marneffei [2]
  zone of inhibition at 100 ppm: 10 mm
[3]
  inhibition: 47.5%
Staphylococcus aureus [4]
  zone of inhibition at 100 ppm: 13 mm
Escherichia coli [5]
  zone of inhibition at 100 ppm: 14 mm
[6]
  inhibition: 24%
Aspergillus niger [7]
  zone of inhibition at 100 ppm: 10 mm
[8]
  inhibition: 43%
[9]
  inhibition: 35%

## Cc1cc(O)c(C(C)C)cc1-c1cc(-c2ccccc2Cl)c(C#N)c(=O)[nH]1
[1]
  inhibition: 34%
Talaromyces marneffei [2]
  zone of inhibition at 100 ppm: 12 mm
[3]
  inhibition: 32%
Staphylococcus aureus [4]
  zone of inhibition at 100 ppm: 14 mm
Escherichia coli [5]
  zone of inhibition at 100 ppm: 15 mm
[6]
  inhibition: 12%
Aspergillus niger [7]
  zone of inhibition at 100 ppm: 11 mm
[8]
  inhibition: 26%
[9]
  inhibition: 20%

## COc1cc(OC)c(-c2cc(-c3cc(C(C)C)c(O)cc3C)[nH]c(=O)c2C#N)c(OC)c1
[1]
  inhibition: 82.5%
[3]
  inhibition: 79%
Staphylococcus aureus [4]
  zone of inhibition at 100 ppm: 11 mm
Escherichia coli [5]
  zone of inhibition at 100 ppm: 10 mm
[6]
  inhibition: 32%
[8]
  inhibition: 66%
[9]
  inhibition: 52.6%

## Cc1cc(O)c(C(C)C)cc1-c1cc(-c2ccc(N(C)C)cc2)c(C#N)c(=O)[nH]1
[1]
  inhibition: 68%
Talaromyces marneffei [2]
  zone of inhibition at 100 ppm: 13 mm
[3]
  inhibition: 66.5%
Staphylococcus aureus [4]
  zone of inhibition at 100 ppm: 14 mm
Escherichia coli [5]
  zone of inhibition at 100 ppm: 14 mm
[6]
  inhibition: 30%
Aspergillus niger [7]
  zone of inhibition at 100 ppm: 14 mm
[8]
  inhibition: 53%
[9]
  inhibition: 43%

## COc1cc(-c2cc(-c3cc(C(C)C)c(O)cc3C)[nH]c(=O)c2C#N)cc(OC)c1OC
[1]
  inhibition: 84.5%
[3]
  inhibition: 82%
Staphylococcus aureus [4]
  zone of inhibition at 100 ppm: 10 mm
Escherichia coli [5]
  zone of inhibition at 100 ppm: 11 mm
[6]
  inhibition: 35%
[8]
  inhibition: 71%
[9]
  inhibition: 55%

## Cc1cc(O)c(C(C)C)cc1-c1cc(-c2ccccc2)c(C#N)c(=O)[nH]1
[1]
  inhibition: 41%
Talaromyces marneffei [2]
  zone of inhibition at 100 ppm: 9 mm
[3]
  inhibition: 58%
Staphylococcus aureus [4]
  zone of inhibition at 100 ppm: 11 mm
Escherichia coli [5]
  zone of inhibition at 100 ppm: 10 mm
[6]
  inhibition: 22%
Aspergillus niger [7]
  zone of inhibition at 100 ppm: 9 mm
[8]
  inhibition: 34%
[9]
  inhibition: 29%

## COc1ccc(-c2cc(-c3cc(C(C)C)c(O)cc3C)[nH]c(=O)c2C#N)c(OC)c1
[1]
  inhibition: 58%
Talaromyces marneffei [2]
  zone of inhibition at 100 ppm: 10 mm
[3]
  inhibition: 55%
Staphylococcus aureus [4]
  zone of inhibition at 100 ppm: 14 mm
Escherichia coli [5]
  zone of inhibition at 100 ppm: 13 mm
[6]
  inhibition: 27%
Aspergillus niger [7]
  zone of inhibition at 100 ppm: 10 mm
[8]
  inhibition: 48.5%
[9]
  inhibition: 37.5%

## Cc1cc(O)c(C(C)C)cc1-c1cc(-c2cccs2)c(C#N)c(=O)[nH]1
[1]
  inhibition: 68%
Talaromyces marneffei [2]
  zone of inhibition at 100 ppm: 11 mm
[3]
  inhibition: 63%
Staphylococcus aureus [4]
  zone of inhibition at 100 ppm: 14 mm
Escherichia coli [5]
  zone of inhibition at 100 ppm: 13 mm
[6]
  inhibition: 26%
Aspergillus niger [7]
  zone of inhibition at 100 ppm: 10 mm
[8]
  inhibition: 54.3%
[9]
  inhibition: 41%

## Cc1ccc(C(C)C)c(O)c1 [THYMOL]
[1]
  inhibition: 31%
Talaromyces marneffei [2]
  zone of inhibition at 100 ppm: 7 mm
[3]
  inhibition: 27.5%
Staphylococcus aureus [4]
  zone of inhibition at 100 ppm: 9 mm
Escherichia coli [5]
  zone of inhibition at 100 ppm: 8 mm
[6]
  inhibition: 10%
Aspergillus niger [7]
  zone of inhibition at 100 ppm: 8 mm
[8]
  inhibition: 22.5%
[9]
  inhibition: 16%

## COc1cc(-c2cc(-c3cc(C(C)C)c(O)cc3C)[nH]c(=O)c2C#N)ccc1O
[1]
  inhibition: 44%
Talaromyces marneffei [2]
  zone of inhibition at 100 ppm: 11 mm
[3]
  inhibition: 42%
Staphylococcus aureus [4]
  zone of inhibition at 100 ppm: 15 mm
Escherichia coli [5]
  zone of inhibition at 100 ppm: 14 mm
[6]
  inhibition: 26%
Aspergillus niger [7]
  zone of inhibition at 100 ppm: 11 mm
[8]
  inhibition: 37.5%
[9]
  inhibition: 32%

## Cc1cc(O)c(C(C)C)cc1-c1cc(-c2ccco2)c(C#N)c(=O)[nH]1
[1]
  inhibition: 70%
Talaromyces marneffei [2]
  zone of inhibition at 100 ppm: 9 mm
[3]
  inhibition: 64%
Staphylococcus aureus [4]
  zone of inhibition at 100 ppm: 13 mm
Escherichia coli [5]
  zone of inhibition at 100 ppm: 12 mm
[6]
  inhibition: 26%
Aspergillus niger [7]
  zone of inhibition at 100 ppm: 10 mm
[8]
  inhibition: 55.2%
[9]
  inhibition: 42.5%
